In patent US8318504B2, “MRP2 efflux pathway prognostic method” (priority 2009, dated 2012):

Target: T1, NTCP (Homo sapiens, UniProt Q14973)
T1 construct: the coding region ligated into pcDNA5/FRT; expressed in transfected cells
T1 sequence (Q14973 1-349): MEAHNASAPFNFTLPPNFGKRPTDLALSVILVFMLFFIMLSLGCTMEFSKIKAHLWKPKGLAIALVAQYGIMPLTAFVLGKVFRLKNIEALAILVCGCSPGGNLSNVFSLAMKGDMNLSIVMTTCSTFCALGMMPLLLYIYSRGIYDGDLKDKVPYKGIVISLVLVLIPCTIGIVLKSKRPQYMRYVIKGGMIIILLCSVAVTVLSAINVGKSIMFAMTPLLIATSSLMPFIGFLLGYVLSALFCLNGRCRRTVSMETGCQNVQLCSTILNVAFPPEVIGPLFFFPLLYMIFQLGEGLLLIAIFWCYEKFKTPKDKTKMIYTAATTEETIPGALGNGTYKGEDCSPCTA
Experiment: Inhibition by CLF of TC transport in CHO cells expressing NTCP
Assay type: cell-based
Conditions: 0, 5 or 50 μmol/L CLF, 2.5 μmol/L TC
Description: FIGS. 3A-3D relate to inhibition of transport activity of hepatocellular uptake transporters by CLF. CHO cells expressing NTCP, OATP1B1, OATP1B3 and OATP2B1 were incubated with 0, 5 or 50 μmol/L CLF and with the substrates, 2.5 μmol/L TC, 1 μmol/L estrone-3-sulfate, 10 μmol/L TC and 1 μmol/L estrone-3-sulfate, respectively. Data represent means±SD of triplicate determinations.
For all transport experiments, cells grown on 3 cm culture dishes were cultured for 24 hours in media supplemented with 5 mmol/L sodium-butyrate to increase expression levels of transfected transporters [Palermo D P et al., J Biotechnol 1991 June; 19(1):35-47]. • Transport experiments with uptake of radioactively labeled substrates: These experiments were performed as described by Huber R D et al. [Am J Physiol Cell Physiol 2007 February; 292(2):C795-C806]. • Transport experiments with uptake of CLF: Uptake was performed in the same buffers as for the radioactive substrates above. […] After complete solubilization, 1.5 ml was used to measure fluorescence in a Perkin-Elmer LS-5 luminescence-spectrometer set at λexe 486 nm (slit 10 nm) and λem 520 nm (slit 5 nm). Protein was determined with the bicinchoninic acid method using a kit from Interchim (Montfuçon, France). […]

CC(CCC(=O)NC(CCCCNC(=S)Nc1ccc(-c2c3ccc(=O)cc-3oc3cc(O)ccc23)c(C(=O)O)c1)C(=O)O)C1CCC2C3C(O)CC4CC(O)CCC4(C)C3CC(O)C12C (stereo not shown) [CLF, cholyl lysyl fluorescein]
inhibition of transport of TC via NTCP by CLF: very efficiently inhibited
